Molecular target: rLHR (Rattus norvegicus, UniProt P16235)
Test: Reporter gene expression (SEAP, eYFP) of CS/pDADMAC-encapsulated CK04 cells
Format: cell-based
Design: Full-length cDNAs encoding the LHRs of rat (r) and bovine (b) origin; expressed in transfected cells; host or cells: CK04: HEK293T stably cotransfected with pLEN-rLHR and pZeoSV2(+), clone 6
Excerpt: The SEAP production increased over time in the presence but not the absence of bLH.
To determine whether bLH can penetrate microcapsules and activate the gene expression of encapsulated cells, CK04 cells were transiently transfected with a vector encoding PCRE controlled eYFP expression (pCK91, PCRE-eYFP-pA). After transfection the cells were encapsulated in CS/pDADMAC-microcapsules and cultured in the absence or presence of bLH. […] In contrast in the absence of bLH the cells remained non-fluorescent. […] It was also investigated if the activation of encapsulated cells is bLH dose- and time-dependent. Therefore, CK04 cells transiently transfected for PCRE dependent SEAP expression (pCK62, PCRE-SEAP-PA) were encapsulated, the capsules cultured in the absence or presence of 100 ng/ml or 500 ng/ml bLH and the SEAP expression measured in 12 hours intervals (FIG. 11). […] 60 hours post-induction a 2.3±0.2 fold higher SEAP expression for LH-surge doses of bLH compared to 100 ng/ml hormone was measured. […]
The intracellular cAMP production of cells was quantified using the cAMP Fluorescence Polarization (FP) Biotrak Immunoassay System (GE Healthcare Bio-Sciences GmbH, Otelfingen, Switzerland, Cat No. RPN3595) according to the manufacturer's protocol. The expression of firefly luciferase was determined with the Tropix Luciferase Assay Kit (Applied Biosystems, Bedford, USA, Cat No. BC100L). […]

Sequence of rLHR (P16235 27-700): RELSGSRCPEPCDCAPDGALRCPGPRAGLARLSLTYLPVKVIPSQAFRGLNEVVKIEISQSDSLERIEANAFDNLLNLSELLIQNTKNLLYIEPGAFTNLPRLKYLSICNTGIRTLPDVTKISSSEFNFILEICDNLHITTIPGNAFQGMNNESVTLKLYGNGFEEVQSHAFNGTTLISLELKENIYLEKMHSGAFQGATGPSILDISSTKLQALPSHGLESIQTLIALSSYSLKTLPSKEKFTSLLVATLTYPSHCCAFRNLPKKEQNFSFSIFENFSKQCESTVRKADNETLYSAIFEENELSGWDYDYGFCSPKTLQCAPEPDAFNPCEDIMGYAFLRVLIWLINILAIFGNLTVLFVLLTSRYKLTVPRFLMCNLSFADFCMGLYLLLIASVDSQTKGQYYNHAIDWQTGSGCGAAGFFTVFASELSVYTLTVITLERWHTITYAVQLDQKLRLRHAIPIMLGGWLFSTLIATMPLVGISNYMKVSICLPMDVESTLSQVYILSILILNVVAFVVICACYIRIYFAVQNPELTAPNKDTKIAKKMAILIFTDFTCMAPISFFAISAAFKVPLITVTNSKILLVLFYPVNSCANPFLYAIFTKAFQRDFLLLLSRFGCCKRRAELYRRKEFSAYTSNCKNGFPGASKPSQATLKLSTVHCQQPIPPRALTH

bovine luteinizing hormone [bLH] was tested, and the “SEAP expression for LH-surge doses of bLH compared to 100 ng/ml” value (encapsulated CK04, pCK62, 60 hours post-induction, 500 ng/ml vs 100 ng/ml) was 2.3±0.2 fold and the “eYFP expression of encapsulated cells” value (encapsulated CK04, pCK91, bLH present) was “strongly induced”.
